# Measured values as given in paper PMC6199744, “Development of Chemical Proteomics for the Folateome and Analysis of the Kinetoplastid Folateome” (ACS Infectious Diseases, 2018).
# Like-named read-outs stand apart in the source and are kept apart here.
# Key:
# Format in all cases: binding
# [1] = target: T1, HeLa cell extract proteins (Homo sapiens, UniProt P31947)
# T1 construct: endogenous in cells; host or cells: HeLa cell extract
# T1 sequence (P31947 1-248): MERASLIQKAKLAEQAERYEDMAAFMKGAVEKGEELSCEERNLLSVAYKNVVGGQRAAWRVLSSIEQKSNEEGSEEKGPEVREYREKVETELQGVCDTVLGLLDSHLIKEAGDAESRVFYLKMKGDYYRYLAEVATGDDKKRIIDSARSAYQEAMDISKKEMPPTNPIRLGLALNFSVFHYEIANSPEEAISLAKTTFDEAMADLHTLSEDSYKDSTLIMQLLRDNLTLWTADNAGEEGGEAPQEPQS
# [2] = target: T2, HeLa cell extract proteins (Homo sapiens, UniProt P56381)
# T2 construct: endogenous in cells; host or cells: HeLa cell extract
# T2 sequence (P56381 1-51): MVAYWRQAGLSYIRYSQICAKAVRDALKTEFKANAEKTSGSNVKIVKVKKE
# [3] = target: T3, HeLa cell extract proteins (Homo sapiens, UniProt P00403)
# T3 construct: endogenous in cells; host or cells: HeLa cell extract
# [4] = target: T4, HeLa cell extract proteins (Homo sapiens, UniProt P39656)
# T4 construct: endogenous in cells; host or cells: HeLa cell extract
# T4 sequence (P39656 43-456): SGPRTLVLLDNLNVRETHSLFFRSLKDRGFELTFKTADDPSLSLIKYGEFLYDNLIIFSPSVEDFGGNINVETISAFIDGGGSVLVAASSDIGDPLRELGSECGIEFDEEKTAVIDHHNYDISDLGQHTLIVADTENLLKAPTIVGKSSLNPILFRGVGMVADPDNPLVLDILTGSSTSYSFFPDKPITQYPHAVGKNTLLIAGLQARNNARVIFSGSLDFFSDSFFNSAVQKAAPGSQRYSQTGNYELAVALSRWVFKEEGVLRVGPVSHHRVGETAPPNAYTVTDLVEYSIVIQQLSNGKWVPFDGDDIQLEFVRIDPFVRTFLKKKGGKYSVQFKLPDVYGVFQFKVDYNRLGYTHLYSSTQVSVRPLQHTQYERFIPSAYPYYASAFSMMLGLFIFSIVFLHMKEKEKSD
# [5] = target: T5, HeLa cell extract proteins (Homo sapiens, UniProt P49368)
# T5 construct: endogenous in cells; host or cells: HeLa cell extract
# T5 sequence (P49368 1-545): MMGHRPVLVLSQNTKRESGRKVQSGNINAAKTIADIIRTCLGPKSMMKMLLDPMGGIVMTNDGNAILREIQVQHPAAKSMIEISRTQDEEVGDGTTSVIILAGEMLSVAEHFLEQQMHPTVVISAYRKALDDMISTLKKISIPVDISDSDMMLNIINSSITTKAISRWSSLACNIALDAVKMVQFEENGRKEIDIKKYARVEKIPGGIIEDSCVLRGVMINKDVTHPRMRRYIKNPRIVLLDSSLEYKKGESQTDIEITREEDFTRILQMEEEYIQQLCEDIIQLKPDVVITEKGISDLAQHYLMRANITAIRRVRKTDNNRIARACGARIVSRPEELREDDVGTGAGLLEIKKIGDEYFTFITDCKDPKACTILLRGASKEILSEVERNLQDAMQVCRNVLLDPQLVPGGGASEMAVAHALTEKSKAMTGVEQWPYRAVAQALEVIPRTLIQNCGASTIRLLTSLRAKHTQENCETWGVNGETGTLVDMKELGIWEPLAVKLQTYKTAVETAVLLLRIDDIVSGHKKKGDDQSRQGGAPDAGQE
# [6] = target: T6, HeLa cell extract proteins (Homo sapiens, UniProt Q7RTS9)
# T6 construct: endogenous in cells; host or cells: HeLa cell extract
# T6 sequence (Q7RTS9 1-669): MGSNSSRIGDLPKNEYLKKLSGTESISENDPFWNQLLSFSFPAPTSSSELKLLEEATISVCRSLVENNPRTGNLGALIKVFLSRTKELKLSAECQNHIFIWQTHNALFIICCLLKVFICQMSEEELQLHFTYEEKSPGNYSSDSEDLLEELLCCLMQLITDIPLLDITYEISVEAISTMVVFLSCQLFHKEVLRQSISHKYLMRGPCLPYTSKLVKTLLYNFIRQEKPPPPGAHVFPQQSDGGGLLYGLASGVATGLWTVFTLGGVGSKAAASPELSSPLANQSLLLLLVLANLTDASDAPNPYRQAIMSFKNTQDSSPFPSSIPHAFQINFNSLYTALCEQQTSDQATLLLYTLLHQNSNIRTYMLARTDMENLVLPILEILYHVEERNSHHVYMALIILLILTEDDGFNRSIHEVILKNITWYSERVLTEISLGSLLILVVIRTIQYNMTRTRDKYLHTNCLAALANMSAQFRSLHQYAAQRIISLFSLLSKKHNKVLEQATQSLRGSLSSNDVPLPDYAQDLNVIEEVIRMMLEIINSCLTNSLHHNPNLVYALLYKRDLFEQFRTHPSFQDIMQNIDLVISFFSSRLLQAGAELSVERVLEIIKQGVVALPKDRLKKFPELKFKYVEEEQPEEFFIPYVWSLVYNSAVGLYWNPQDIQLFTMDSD
# [7] = target: T7, HeLa cell extract proteins (Homo sapiens, UniProt P63151)
# T7 construct: endogenous in cells; host or cells: HeLa cell extract
# T7 sequence (P63151 1-447): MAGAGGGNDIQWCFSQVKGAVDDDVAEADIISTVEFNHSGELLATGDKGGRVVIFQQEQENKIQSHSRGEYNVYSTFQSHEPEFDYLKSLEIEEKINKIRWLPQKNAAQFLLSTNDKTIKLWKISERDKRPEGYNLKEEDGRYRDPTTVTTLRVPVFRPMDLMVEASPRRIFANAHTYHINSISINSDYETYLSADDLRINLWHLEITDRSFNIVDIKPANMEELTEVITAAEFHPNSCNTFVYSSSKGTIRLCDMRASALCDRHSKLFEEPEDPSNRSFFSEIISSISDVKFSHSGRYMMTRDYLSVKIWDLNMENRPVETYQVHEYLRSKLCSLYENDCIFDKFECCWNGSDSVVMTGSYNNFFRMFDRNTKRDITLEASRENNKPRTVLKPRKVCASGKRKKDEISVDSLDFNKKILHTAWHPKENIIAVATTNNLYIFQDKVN
# T3 sequence (P00403 whole entry): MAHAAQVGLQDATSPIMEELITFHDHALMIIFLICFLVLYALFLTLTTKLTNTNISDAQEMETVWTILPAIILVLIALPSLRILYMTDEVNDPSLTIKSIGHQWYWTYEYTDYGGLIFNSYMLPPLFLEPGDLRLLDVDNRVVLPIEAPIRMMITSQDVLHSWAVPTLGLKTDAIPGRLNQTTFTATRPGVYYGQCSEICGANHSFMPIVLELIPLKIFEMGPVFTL
Structure (SMILES),"fold changes relative to vehicle control ([1]; HeLa, protein SFN)","fold changes relative to vehicle control ([2]; HeLa, captured protein ATP5E)","fold changes relative to vehicle control ([3]; protein COX2, HeLa)","fold changes relative to vehicle control ([4]; HeLa, captured protein DDOST)","fold changes relative to vehicle control ([5]; protein CCT3, HeLa)","fold changes relative to vehicle control ([6]; HeLa, protein DYM)","fold changes relative to vehicle control ([7]; HeLa, captured protein PPP2R2A)",fold changes relative to vehicle control [1],fold changes relative to vehicle control [2],fold changes relative to vehicle control [3],fold changes relative to vehicle control [4],fold changes relative to vehicle control [5],fold changes relative to vehicle control [6],fold changes relative to vehicle control [7],"fold changes relative to vehicle control ([1]; protein SFN, HeLa)","fold changes relative to vehicle control ([2]; captured protein ATP5E, HeLa)","fold changes relative to vehicle control ([3]; captured protein COX2, HeLa)","fold changes relative to vehicle control ([4]; captured protein DDOST, HeLa)","fold changes relative to vehicle control ([7]; protein PPP2R2A, HeLa)"
"Nc1nc2c(c(=O)[nH]1)N(C=O)C(CNc1ccc(C(=O)N[C@@H](CCC(=O)O)C(=O)O)cc1)CN2 (stereo partly shown) [LEU, leucovorin]",1.07,1.13,1.05,0.8,0.88,0.78,0.97,,,,,,,,,,,,
"Nc1nc2[nH]cc(CCc3ccc(C(=O)N[C@@H](CCC(=O)O)C(=O)O)cc3)c2c(=O)[nH]1 [PTX, pemetrexed]",,,,,,,,1.28,1.34,1.24,0.85,1,0.68,0.97,,,,,
CCCCCCOc1ccc(Cc2cnc(N)nc2N)cc1 [compound 1],,,,,1.22,0.89,,,,,,,,,1.27,0.88,0.99,0.81,0.92
CCCCCCOc1cccc(Cc2cnc(N)nc2N)c1 [compound 2],,,,,1.72,1.27,,,,,,,,,1.83,0.96,0.95,1.1,1.05
Nc1nc2cccc(-c3ccccc3)c2n1Cc1ccc(Cl)c(Cl)c1 [compound 3],,,,,1.06,0.88,,,,,,,,,0.82,0.92,1.14,1.05,0.99
NCCOCCOCC(=O)Nc1nc2ncc(CNc3ccc(C(=O)NC(CCC(=O)O)C(=O)O)cc3)nc2c(=O)[nH]1 (stereo not shown) [compound 6],1.45,1.39,1.33,0.95,1.16,0.86,0.97,,,,,,,,,,,,
NCCCNc1ccc(C(=O)NC(CCC(=O)O)C(=O)O)cc1 (stereo not shown) [compound 7],0.97,1.37,1.27,1.07,1,0.94,0.87,,,,,,,,,,,,
